The subject of one data set is Staphylococcus aureus. The experiment in a line: Antibacterial efficacy in mouse model of Staphylococcus aureus systemic infection (peritonitis model). It is filed as in vivo, Swiss Webster mice. The following applies: for effect on survival in a mouse model of Staphylococcus aureus infection (in words): summary of Tables 4a-4c. As to the method:
(§1) Female Swiss Webster mice were experimentally infected by intraperitoneal administration of 5×10^7 colony forming units of Staphylococcus aureus in 10% hog gastric mucin. Test compounds (2-3 mg/ml in vehicle [9-19% dimethyacetamide/8-16% Cremophor EL in water, v/v]), positive controls (2 mg/ml vancomycin in vehicle), and negative controls (vehicle only and saline only), were administered by intravenous injection into a tail vein 1 h and 5 h post-infection (200 μl per injection). Survival was monitored for 12 h post-infection, or for 24, 48, and 72 h post-infection. At the end of the monitoring period, surviving animals were euthanized.

Another data set concerns the target S. aureus RNA polymerase (Staphylococcus aureus, UniProt P47768+Q2G0N5). Nature of the data set: Inhibition of Staphylococcus aureus RNA polymerase (fluorescence-detected). It is filed as biochemical.
A short description of data set [1]: Tolerability upon intravenous injection (peritonitis model study). It is filed as in vivo, Swiss Webster mice. The following applies: daily total doses of at least 30 mg/kg; vehicles containing 9% to 19% dimethylacetamide and 8% to 16% Cremophor EL. How it is done:
as §1

The target of data set [2] is M. tuberculosis RNA polymerase (Mycobacterium tuberculosis, UniProt P9WGY7+P9WGY9). Nature of the data set: Inhibition of Mycobacterium tuberculosis RNA polymerase (fluorescence-detected). It is filed as biochemical. As to the method: (§2) Fluorescence-detected RNA polymerase assays with E. coli RNA polymerase were performed by a modification of the procedure of Kuhlman et al., 2004 [Kuhlman, P., Duff, H. & Galant, A. (2004) A fluorescence-based assay for multisubunit DNA-dependent RNA polymerases. Anal. Biochem. 324, 183-190]. Reaction mixtures contained (20 μl): 0-100 nM test compound, 75 nM E. coli RNA polymerase σ^70 holoenzyme, 20 nM 384 bp DNA fragment containing the bacteriophage T4 N25 promoter, 100 μM ATP, 100 μM GTP, 100 μM UTP, 100 μM CTP, 50 mM Tris-HCl, pH 8.0, 100 mM KCl, 10 mM MgCl2, 1 mM DTT, 10 μg/ml bovine serum albumin, and 5.5% glycerol. Reaction components other than DNA and NTPs were pre-incubated for 10 min at 37° C. Reactions were carried out by addition of DNA and incubation for 5 min at 37° C., followed by addition of NTPs and incubation for 60 min at 37° C. DNA was removed by addition of 1 μl 5 mM CaCl2 and 2 U DNaseI (Ambion, Inc.), followed by incubation for 90 min at 37° C. RNA was quantified by addition of 100 μl RiboGreen RNA Quantitation Reagent (Invitrogen, Inc.; 1:500 dilution in Tris-HCl, pH 8.0, 1 mM EDTA), followed by incubation for 10 min at 25° C., followed by measurement of fluorescence intensity [excitation wavelength=485 nm and emission wavelength=535 nm; QuantaMaster QM1 spectrofluorometer (PTI, Inc.)].
Fluorescence-detected RNA polymerase assays with M. tuberculosis RNA polymerase were performed as in Example 17.1, using reaction mixtures containing (20 μl): 0-100 nM test compound, 75 nM M. tuberculosis RNA polymerase core enzyme, 300 nM M. tuberculosis σ^A, 20 nM 384 bp DNA fragment containing the bacteriophage […] N25 promoter, 100 μM ATP, 100 μM GTP, 100 μM UTP, 100 μM CTP, 40 mM Tris-HCl, pH 8.0, 80 mM NaCl, 5 mM MgCl2, 2.5 mM DTT, and 12.7% glycerol.

Data set [3] deals with E. coli RNA polymerase σ^70 holoenzyme (Escherichia coli, UniProt P0A8T7+P0A8V2). Nature of the data set: Inhibition of Escherichia coli RNA polymerase (fluorescence-detected). The following applies: read-out: IC50 E. coli RNAP. It is filed as biochemical. As to the method:
as §2

Data set [4] concerns Enterococcus faecalis ATCC 19433. Nature of the data set: Inhibition of bacterial growth in culture (MIC, spiral gradient endpoint). It is filed as cell-based. The following applies: for MIC: Enterococcus faecalis, ATCC19433, Mueller-Hinton II agar, 16 h at 37° C., read-out: MIC E. faecalis 19433. The source says:
(§3) Minimum inhibitory concentrations (MICs) for Staphylococcus aureus ATCC 12600, Enterococcus faecalis ATCC 19433, Acinetobacter baumannii ATCC 19606, and Escherichia coli D21f2tolC were quantified using spiral gradient endpoint assays, essentially as described [Wallace, A. and Corkill, J. (1989) Application of the spiral plating method to study antimicrobial action. J. Microbiol. Meths. […] Int. J. Exp. Clin. Chemother. 3, 31-38; Schalkowsky S. (1994) Measures of susceptibility from a spiral gradient of drug concentrations. Adv. Exp. Med. Biol. 349, 107-120]. Assays employed exponential-gradient plates containing 150 mm×4 mm Mueller-Hinton II cation-adjusted agar and 0.4-100 μg/ml of test compound. Plates were prepared using an Autoplate 4000 spiral plater (Spiral Biotech, Inc.). Saturated overnight cultures were swabbed radially onto plates, and plates were incubated for 16 h at 37° C. For each culture, the streak length was measured using a clear plastic template (Spiral Biotech, Inc.), the test-compound concentration at the streak endpoint was calculated using the program SGE (Spiral Biotech, Inc.), and the MIC was defined as the calculated test-compound concentration at the streak endpoint.

Data set [5] has as its system Staphylococcus aureus ATCC 12600. The data set is described as above. It is filed as cell-based. The following applies: for MIC: Staphylococcus aureus, ATCC12600, Mueller-Hinton II agar, 16 h at 37° C., read-out: MIC S. aureus 12600; for inhibition of Staphylococcus aureus compared with Myx B and 7-desmethyl-Myx B: summary of Table 3.
Excerpt: as §3

The test system of data set [6] is Escherichia coli D21f2tolC. The description is as above. It is filed as cell-based. Particulars: 16 h, read-out: MIC E. coli D21f2tolC.
Excerpt: as §3

In data set [7] the test system is Acinetobacter baumannii ATCC 19606. The description is as above. Particulars: for MIC: Acinetobacter baumannii, ATCC19606, Mueller-Hinton II agar, 16 h at 37° C. It is filed as cell-based.
Excerpt: as §3

[8] abbreviates: Table 4c, total dose 50 mg/kg iv, vehicle 9% dimethylacetamide/8% Cremophor EL/83% water.
Where [9] appears, read: Table 4a, total dose 30 mg/kg iv, 1 h and 5 h post-infection, vehicle 19% dimethylacetamide/8% Cremophor EL/73% water.
The mark [10] stands for this setting: read-out: IC50 M. tuberculosis RNAP.

In brackets after ≈: the same amount, converted by molar mass. Read-outs that look alike come from different tables or passages of the source.

By IC50 is commonly meant the concentration at which inhibition is half-maximal. The term MIC denotes the lowest concentration that inhibits growth of the organism.

Sequence of E. coli RNA polymerase σ^70 holoenzyme (P0A8V2 whole entry): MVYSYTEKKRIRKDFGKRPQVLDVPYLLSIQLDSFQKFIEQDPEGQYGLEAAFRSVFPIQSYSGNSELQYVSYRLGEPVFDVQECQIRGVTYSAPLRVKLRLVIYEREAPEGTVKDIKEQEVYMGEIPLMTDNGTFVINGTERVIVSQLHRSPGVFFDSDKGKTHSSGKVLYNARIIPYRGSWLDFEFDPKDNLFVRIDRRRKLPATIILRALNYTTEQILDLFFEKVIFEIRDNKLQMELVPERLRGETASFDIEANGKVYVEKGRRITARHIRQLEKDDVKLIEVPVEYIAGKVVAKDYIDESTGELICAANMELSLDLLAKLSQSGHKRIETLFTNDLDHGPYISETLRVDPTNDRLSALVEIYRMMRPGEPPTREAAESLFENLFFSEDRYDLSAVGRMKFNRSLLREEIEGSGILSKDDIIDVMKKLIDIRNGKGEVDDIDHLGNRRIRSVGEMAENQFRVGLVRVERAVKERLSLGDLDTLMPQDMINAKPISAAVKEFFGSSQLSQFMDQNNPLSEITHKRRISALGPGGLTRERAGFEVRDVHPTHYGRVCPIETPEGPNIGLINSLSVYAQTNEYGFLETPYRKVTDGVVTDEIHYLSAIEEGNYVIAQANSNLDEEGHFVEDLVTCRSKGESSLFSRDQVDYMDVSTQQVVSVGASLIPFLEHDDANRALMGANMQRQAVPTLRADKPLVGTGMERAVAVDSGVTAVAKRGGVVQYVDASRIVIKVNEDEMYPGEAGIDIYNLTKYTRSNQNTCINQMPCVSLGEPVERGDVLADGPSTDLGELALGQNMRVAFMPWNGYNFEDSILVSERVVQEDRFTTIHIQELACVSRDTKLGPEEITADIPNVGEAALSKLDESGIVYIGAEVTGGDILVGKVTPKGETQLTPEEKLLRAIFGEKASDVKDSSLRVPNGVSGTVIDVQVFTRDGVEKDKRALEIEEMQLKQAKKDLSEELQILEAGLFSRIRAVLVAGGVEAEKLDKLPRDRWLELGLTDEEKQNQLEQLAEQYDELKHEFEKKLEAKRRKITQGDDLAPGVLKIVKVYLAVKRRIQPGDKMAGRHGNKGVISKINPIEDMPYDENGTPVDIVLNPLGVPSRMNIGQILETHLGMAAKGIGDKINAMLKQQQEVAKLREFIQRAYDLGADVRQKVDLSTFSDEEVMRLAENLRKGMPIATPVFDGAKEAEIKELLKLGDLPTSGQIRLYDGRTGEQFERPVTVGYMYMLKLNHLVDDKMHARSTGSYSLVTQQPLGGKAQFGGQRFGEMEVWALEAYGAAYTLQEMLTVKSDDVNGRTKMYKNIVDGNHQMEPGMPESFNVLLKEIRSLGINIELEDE
Sequence of E. coli RNA polymerase σ^70 holoenzyme (P0A8T7 whole entry): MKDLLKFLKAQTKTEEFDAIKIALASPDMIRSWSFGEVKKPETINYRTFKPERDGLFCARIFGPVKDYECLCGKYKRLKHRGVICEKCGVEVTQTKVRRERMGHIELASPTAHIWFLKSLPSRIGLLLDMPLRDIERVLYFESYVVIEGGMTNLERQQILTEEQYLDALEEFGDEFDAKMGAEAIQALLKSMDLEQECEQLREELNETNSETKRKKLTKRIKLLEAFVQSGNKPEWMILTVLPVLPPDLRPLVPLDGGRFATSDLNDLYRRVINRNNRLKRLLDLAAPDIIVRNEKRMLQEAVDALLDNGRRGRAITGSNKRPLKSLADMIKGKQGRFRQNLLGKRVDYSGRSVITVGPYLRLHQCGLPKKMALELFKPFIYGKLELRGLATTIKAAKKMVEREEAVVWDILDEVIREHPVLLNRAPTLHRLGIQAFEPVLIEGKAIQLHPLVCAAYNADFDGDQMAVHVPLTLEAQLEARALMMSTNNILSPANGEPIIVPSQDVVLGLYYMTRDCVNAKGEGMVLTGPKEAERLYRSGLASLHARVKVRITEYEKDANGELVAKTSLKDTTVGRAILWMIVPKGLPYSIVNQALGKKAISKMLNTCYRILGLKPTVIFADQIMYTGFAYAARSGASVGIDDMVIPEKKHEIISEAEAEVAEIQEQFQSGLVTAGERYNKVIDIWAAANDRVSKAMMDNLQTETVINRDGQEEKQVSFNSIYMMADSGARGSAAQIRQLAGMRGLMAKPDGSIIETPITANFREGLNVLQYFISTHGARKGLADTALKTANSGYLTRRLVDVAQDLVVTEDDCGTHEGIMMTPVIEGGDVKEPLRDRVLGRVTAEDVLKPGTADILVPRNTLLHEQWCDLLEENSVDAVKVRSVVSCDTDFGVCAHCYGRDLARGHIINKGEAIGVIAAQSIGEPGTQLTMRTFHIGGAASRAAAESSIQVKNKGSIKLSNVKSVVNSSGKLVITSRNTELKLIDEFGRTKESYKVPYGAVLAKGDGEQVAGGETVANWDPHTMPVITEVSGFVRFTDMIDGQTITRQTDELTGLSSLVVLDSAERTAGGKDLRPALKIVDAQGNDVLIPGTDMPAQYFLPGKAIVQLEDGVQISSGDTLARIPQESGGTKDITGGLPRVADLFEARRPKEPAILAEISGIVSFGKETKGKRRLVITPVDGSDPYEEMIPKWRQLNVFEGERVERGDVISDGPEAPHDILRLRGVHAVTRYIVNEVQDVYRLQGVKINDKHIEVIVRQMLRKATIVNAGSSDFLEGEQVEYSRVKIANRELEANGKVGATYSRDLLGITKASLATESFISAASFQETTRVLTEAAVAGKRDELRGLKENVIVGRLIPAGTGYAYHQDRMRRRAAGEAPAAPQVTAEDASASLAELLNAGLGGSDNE
Sequence of E. coli RNA polymerase σ^70 holoenzyme (P0A7Z4 whole entry partner): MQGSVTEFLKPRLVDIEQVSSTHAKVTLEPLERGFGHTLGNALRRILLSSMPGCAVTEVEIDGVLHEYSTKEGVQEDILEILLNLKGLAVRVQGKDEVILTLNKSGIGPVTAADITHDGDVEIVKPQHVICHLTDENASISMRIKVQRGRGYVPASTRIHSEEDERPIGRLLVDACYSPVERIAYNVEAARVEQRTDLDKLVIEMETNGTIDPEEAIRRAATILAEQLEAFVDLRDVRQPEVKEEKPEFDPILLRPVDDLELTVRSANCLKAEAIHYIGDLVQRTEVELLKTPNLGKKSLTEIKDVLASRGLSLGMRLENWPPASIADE
Sequence of E. coli RNA polymerase σ^70 holoenzyme (P0A800 whole entry partner): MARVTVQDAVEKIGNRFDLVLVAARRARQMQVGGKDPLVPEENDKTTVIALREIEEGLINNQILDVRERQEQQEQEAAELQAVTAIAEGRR
Sequence of E. coli RNA polymerase σ^70 holoenzyme (P00579 whole entry partner): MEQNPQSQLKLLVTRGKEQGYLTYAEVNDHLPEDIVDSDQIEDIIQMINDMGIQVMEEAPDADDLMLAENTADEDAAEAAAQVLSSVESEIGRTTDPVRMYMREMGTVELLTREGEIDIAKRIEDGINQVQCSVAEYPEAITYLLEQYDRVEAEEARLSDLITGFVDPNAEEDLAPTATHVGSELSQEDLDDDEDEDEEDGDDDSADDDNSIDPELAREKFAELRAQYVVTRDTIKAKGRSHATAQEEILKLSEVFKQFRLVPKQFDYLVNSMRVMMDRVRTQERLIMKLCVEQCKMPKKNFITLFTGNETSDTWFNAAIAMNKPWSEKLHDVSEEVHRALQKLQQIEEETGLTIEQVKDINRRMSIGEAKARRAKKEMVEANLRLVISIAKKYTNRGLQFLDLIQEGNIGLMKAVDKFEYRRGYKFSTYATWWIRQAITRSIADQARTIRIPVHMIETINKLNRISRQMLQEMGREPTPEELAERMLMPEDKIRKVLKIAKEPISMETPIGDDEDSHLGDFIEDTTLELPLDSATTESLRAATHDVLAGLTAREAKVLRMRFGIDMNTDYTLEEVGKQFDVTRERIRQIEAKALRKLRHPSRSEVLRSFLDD

`CCCC/C(C)=C/C=C(\C)C(=O)c1c(O)cc(C(C)CC/C=C/NC(=O)OC)oc1=O` (stereo not shown) [Myx B, Methyl ((E)-5-(3-((2E,4E)-2,5-dimethylnona-2,4-dienoyl)-4-hydroxy-2-oxo-2H-pyran-6-yl)hex-1-en-1-yl)carbamate, reference compound] returned a 12-hour survival with Staphylococcus aureus (Table 4b, total dose 50 mg/kg iv, vehicle 19% dimethylacetamide/16% Cremophor EL/73% water) of 50%. Further, the 24-hour survival in the data set on Staphylococcus aureus (setting [8]) is listed as 75%. In the data set with Staphylococcus aureus (setting [8]), this compound had a 48-hour survival of 50%. Also, the 72-hour survival with Staphylococcus aureus (setting [8]) was 50%. For the same compound, the “effect on survival in a mouse model of Staphylococcus aureus infection (in words)” value (“effect on survival in a mouse model” below) in the data set on Staphylococcus aureus is on record as “increase survival”. Further, the values for the IC50 (against S. aureus RNA polymerase; in data set [2]; in [3]) were 0.066 µM, 0.13 µM and 0.013 µM, respectively. In addition, in data set [1], the “acute toxicity upon intravenous injection” value is given as “tolerated without acute toxicity”. The MIC was 13 µg/mL (≈ 30.1 µM) in [4], 0.78 µg/mL (≈ 1.81 µM) in data set [5], 0.098 µg/mL (≈ 0.227 µM) in [6] and above 40 µg/mL in data set [7]. Also, the “inhibition of Acinetobacter baumannii (in words)” value in data set [7] (summary of Table 3) was “not detectably inhibited”.
`CCCCC/C(C)=C/C=C(\C)C(=O)c1c(O)cc(CCC/C=C/NC(=O)OC)oc1=O` [compound 5, Methyl ((E)-5-(3-((2E,4E)-2,5-dimethyldeca-2,4-dienoyl)-4-hydroxy-2-oxo-2H-pyran-6-yl)pent-1-en-1-yl)carbamate]: the 12-hour survival in the data set with Staphylococcus aureus (setting [9]) is listed as 100%. For the same compound, the “effect on survival in a mouse model” value in the data set on Staphylococcus aureus is listed as “increase survival”. In addition, the IC50 came to 0.015 µM on S. aureus RNA polymerase (read-out: IC50 S. aureus RNAP), 0.032 µM in data set [2] (setting [10]) and 0.0039 µM in [3]. For the same compound, the “acute toxicity upon intravenous injection” value in [1] is reported as “tolerated without acute toxicity”. For the same compound, the minimum inhibitory concentration (MIC) in [4] turned out to be 12 µg/mL (≈ 27.8 µM); in data set [5], 0.44 µg/mL (≈ 1.02 µM); in data set [6], 0.076 µg/mL (≈ 0.176 µM); in data set [7], 19 µg/mL (≈ 44 µM). Moreover, the “inhibition of Enterococcus faecalis compared with Myx B and 7-desmethyl-Myx B” value in data set [4] (summary of Table 3) is “more potently than Myx B and 7-desmethyl-Myx B”. Further, the “inhibition of Staphylococcus aureus compared with Myx B and 7-desmethyl-Myx B” value in data set [5] is “more potently than Myx B and 7-desmethyl-Myx B”.
Compound `CCCCC/C(C)=C/C=C(\C)C(=O)c1c(O)cc(C(C)CC/C=C/NC(=O)OC)oc1=O` (stereo not shown) [compound 8, Methyl ((E)-5-(3-((2E,4E)-2,5-dimethyldeca-2,4-dienoyl)-4-hydroxy-2-oxo-2H-pyran-6-yl)hex-1-en-1-yl)carbamate] came in with a 12-hour survival in the data set with Staphylococcus aureus (setting [9]) of 75%. Also, the “effect on survival in a mouse model” value in the data set on Staphylococcus aureus is given as “increase survival”. Moreover, the IC50 on S. aureus RNA polymerase (read-out: IC50 S. aureus RNAP) was 0.0092 µM; in data set [2] (setting [10]), 0.019 µM; in [3] it was 0.004 µM. Also, the “acute toxicity upon intravenous injection” value in [1] is on record as “tolerated without acute toxicity”. In addition, in data set [5], the MIC came out at 0.5 µg/mL (≈ 1.12 µM). Besides, the “inhibition of Staphylococcus aureus compared with Myx B and 7-desmethyl-Myx B” value in [5] is “more potently than Myx B and 7-desmethyl-Myx B”.

These data come from patent US9133155B2, “Antibacterial agents: high-potency myxopyronin derivatives” (Rutgers, The State University of New Jersey, priority 2010, dated 2015).
